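Test compounds were applied to cells in 96-well plates for 48 hours at 5 doses. GI50 is the concentration that inhibits growth by half. TGI: concentration producing complete growth inhibition.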
How the values were obtained:
Assay in all cases: inhibition of tumour cell growth, NCI panel, 48 h
K-562 leukemia = system: K-562 leukemia
NCI-H460 lung = system: NCI-H460 lung
SNB-19 CNS = system: SNB-19 CNS
MCF7 breast = system: MCF7 breast
OVCAR-5 ovarian = system: OVCAR-5 ovarian
HCT-116 colon = system: HCT-116 colon
UACC-257 melanoma = system: UACC-257 melanoma
MDA-MB-231 breast = system: MDA-MB-231 breast
T-47D breast = system: T-47D breast
SK-MEL-5 melanoma = system: SK-MEL-5 melanoma
RXF 393 renal = system: RXF 393 renal
UACC-62 melanoma = system: UACC-62 melanoma
DU-145 prostate = system: DU-145 prostate
HT29 colon = system: HT29 colon
TK-10 renal = system: TK-10 renal
BT-549 breast = system: BT-549 breast
NCI/ADR-RES ovarian = system: NCI/ADR-RES ovarian
A498 renal = system: A498 renal
CAKI-1 renal = system: CAKI-1 renal
EKVX NSCLC = system: EKVX NSCLC
NCI-H522 lung = system: NCI-H522 lung
HOP-62 NSCLC = system: HOP-62 NSCLC
SK-OV-3 ovarian = system: SK-OV-3 ovarian
COLO 205 colon = system: COLO 205 colon
HCC-2998 colon = system: HCC-2998 colon
HL-60(TB) leukemia = system: HL-60(TB) leukemia
SF-268 CNS = system: SF-268 CNS
HCT-15 colon = system: HCT-15 colon
OVCAR-8 ovarian = system: OVCAR-8 ovarian
SW-620 colon = system: SW-620 colon
SNB-75 CNS = system: SNB-75 CNS
NCI-H226 lung = system: NCI-H226 lung
CCRF-CEM leukemia = system: CCRF-CEM leukemia
HS 578T breast = system: HS 578T breast
SR leukemia = system: SR leukemia
OVCAR-3 ovarian = system: OVCAR-3 ovarian
UO-31 renal = system: UO-31 renal
SK-MEL-2 melanoma = system: SK-MEL-2 melanoma
SF-295 CNS = system: SF-295 CNS
IGROV1 ovarian = system: IGROV1 ovarian
KM12 colon = system: KM12 colon
U251 CNS = system: U251 CNS
RPMI-8226 leukemia = system: RPMI-8226 leukemia
ACHN renal = system: ACHN renal
SK-MEL-28 melanoma = system: SK-MEL-28 melanoma
NCI-H23 lung = system: NCI-H23 lung
MOLT-4 leukemia = system: MOLT-4 leukemia
M14 melanoma = system: M14 melanoma
SF-539 CNS = system: SF-539 CNS
A549 NSCLC = system: A549 NSCLC
LOX IMVI melanoma = system: LOX IMVI melanoma
MALME-3M melanoma = system: MALME-3M melanoma
OVCAR-4 ovarian = system: OVCAR-4 ovarian
PC-3 prostate = system: PC-3 prostate
MDA-MB-435 = system: MDA-MB-435
786-0 renal = system: 786-0 renal
SN12C renal = system: SN12C renal

With `Nc1nc2c(c3ncccc13)C(c1ccc(Cl)c(Cl)c1)Cc1ncccc1-2` (centres undefined) the GI50 (K-562 leukemia) was 2.67 µM, the TGI (K-562 leukemia) was 17.3 µM and the GI50 (NCI-H460 lung) was 3.47 µM. The TGI (NCI-H460 lung) was 13 µM, the GI50 (SNB-19 CNS) was 3.77 µM and the TGI (SNB-19 CNS) was 14.4 µM. The GI50 (MCF7 breast) was 2.99 µM, the TGI (MCF7 breast) was 14.2 µM and the GI50 (OVCAR-5 ovarian) was 6.51 µM. For the same compound, the TGI (OVCAR-5 ovarian) was 24.2 µM, the GI50 (HCT-116 colon) was 3.71 µM and the TGI (HCT-116 colon) was 14.1 µM. The GI50 (UACC-257 melanoma) was 13.2 µM, the TGI (UACC-257 melanoma) was 26.4 µM and the GI50 (MDA-MB-231 breast) was 4.05 µM. The TGI (MDA-MB-231 breast) was 17.1 µM, the GI50 (T-47D breast) was 2.39 µM and the TGI (T-47D breast) was 13.4 µM. For the same compound, the GI50 (SK-MEL-5 melanoma) was 3.99 µM, the TGI (SK-MEL-5 melanoma) was 14.8 µM and the GI50 (RXF 393 renal) was 1.52 µM. The TGI (RXF 393 renal) was 5.25 µM, the GI50 (UACC-62 melanoma) was 2.28 µM and the TGI (UACC-62 melanoma) was 12.5 µM. The GI50 (DU-145 prostate) was 3.6 µM, the TGI (DU-145 prostate) was 12.5 µM and the GI50 (HT29 colon) was 3.22 µM. For the same compound, the TGI (HT29 colon) was 11.9 µM, the GI50 (TK-10 renal) was 6.46 µM and the TGI (TK-10 renal) was 20.5 µM. It also gave a GI50 (BT-549 breast) of 3.73 µM, a TGI (BT-549 breast) of 16.7 µM and a GI50 (NCI/ADR-RES ovarian) of 3.31 µM. For the same compound, the TGI (NCI/ADR-RES ovarian) was 16.1 µM, the GI50 (A498 renal) was 1.93 µM and the TGI (A498 renal) was 5.85 µM. For the same compound, the GI50 (CAKI-1 renal) was 3.9 µM, the TGI (CAKI-1 renal) was 20.5 µM and the GI50 (EKVX NSCLC) was 4.86 µM. It also gave a TGI (EKVX NSCLC) of 18.4 µM, a GI50 (NCI-H522 lung) of 1.5 µM and a TGI (NCI-H522 lung) of 5.1 µM. The GI50 (HOP-62 NSCLC) was 2.96 µM, the TGI (HOP-62 NSCLC) was 14 µM and the GI50 (SK-OV-3 ovarian) was 3.49 µM. For the same compound, the TGI (SK-OV-3 ovarian) was 12.6 µM, the GI50 (COLO 205 colon) was 2.65 µM and the TGI (COLO 205 colon) was 7.3 µM. The GI50 (HCC-2998 colon) was 5.62 µM, the TGI (HCC-2998 colon) was 19.1 µM and the GI50 (HL-60(TB) leukemia) was 3.09 µM. It also gave a TGI (HL-60(TB) leukemia) of 16.2 µM, a GI50 (SF-268 CNS) of 5.14 µM and a TGI (SF-268 CNS) of 23.4 µM. For the same compound, the GI50 (HCT-15 colon) was 4.36 µM, the TGI (HCT-15 colon) was 16.1 µM and the GI50 (OVCAR-8 ovarian) was 4.24 µM. For the same compound, the TGI (OVCAR-8 ovarian) was 36.5 µM, the GI50 (SW-620 colon) was 3.5 µM and the TGI (SW-620 colon) was 19 µM. For the same compound, the GI50 (SNB-75 CNS) was 1.85 µM, the TGI (SNB-75 CNS) was 6.6 µM and the GI50 (NCI-H226 lung) was 16.6 µM. The TGI (NCI-H226 lung) was 41.5 µM, the GI50 (CCRF-CEM leukemia) was 3.27 µM and the TGI (CCRF-CEM leukemia) was 16.6 µM. The GI50 (HS 578T breast) was 3.62 µM, the TGI (HS 578T breast) was 19.2 µM and the GI50 (SR leukemia) was 2.46 µM. For the same compound, the TGI (SR leukemia) was 13 µM, the GI50 (OVCAR-3 ovarian) was 2.59 µM and the TGI (OVCAR-3 ovarian) was 7.63 µM. The GI50 (UO-31 renal) was 4.99 µM, the TGI (UO-31 renal) was 22 µM and the GI50 (SK-MEL-2 melanoma) was 3.79 µM. For the same compound, the TGI (SK-MEL-2 melanoma) was 15.8 µM, the GI50 (SF-295 CNS) was 2.82 µM and the TGI (SF-295 CNS) was 7.94 µM. The GI50 (IGROV1 ovarian) was 7.83 µM, the TGI (IGROV1 ovarian) was 28.1 µM and the GI50 (KM12 colon) was 2.73 µM. For the same compound, the TGI (KM12 colon) was 14.4 µM, the GI50 (U251 CNS) was 3.78 µM and the TGI (U251 CNS) was 13.9 µM. For the same compound, the GI50 (RPMI-8226 leukemia) was 3.81 µM, the TGI (RPMI-8226 leukemia) was 34 µM and the GI50 (ACHN renal) was 4.55 µM. It also gave a TGI (ACHN renal) of 16 µM, a GI50 (SK-MEL-28 melanoma) of 4.07 µM and a TGI (SK-MEL-28 melanoma) of 13.9 µM. The GI50 (NCI-H23 lung) was 5.59 µM, the TGI (NCI-H23 lung) was 21.6 µM and the GI50 (MOLT-4 leukemia) was 3.3 µM. It also gave a TGI (MOLT-4 leukemia) of 15.2 µM, a GI50 (M14 melanoma) of 3.2 µM and a TGI (M14 melanoma) of 12.3 µM. The GI50 (SF-539 CNS) was 2.15 µM, the TGI (SF-539 CNS) was 5.35 µM and the GI50 (A549 NSCLC) was 4.24 µM. The TGI (A549 NSCLC) was 15.3 µM, the GI50 (LOX IMVI melanoma) was 4.4 µM and the TGI (LOX IMVI melanoma) was 16.2 µM. For the same compound, the GI50 (MALME-3M melanoma) was 8.94 µM, the TGI (MALME-3M melanoma) was 26.3 µM and the GI50 (OVCAR-4 ovarian) was 5.76 µM. It also gave a TGI (OVCAR-4 ovarian) of 18.6 µM, a GI50 (PC-3 prostate) of 3.4 µM and a TGI (PC-3 prostate) of 15.5 µM. It also gave a GI50 (MDA-MB-435) of 0.867 µM, a TGI (MDA-MB-435) of 2.95 µM and a GI50 (786-0 renal) of 3.49 µM. For the same compound, the TGI (786-0 renal) was 13.4 µM, the GI50 (SN12C renal) was 6.71 µM and the TGI (SN12C renal) was 24.8 µM.
